The numbers were not newly measured in patent US9085562B2, “6-alkyl-N-(pyridin-2-yl)-4-aryloxypicolinamide analogs as mGluR5 negative allosteric modulators and methods of making and using the same” (Vanderbilt University, priority 2011, dated 2015), which cites them from elsewhere.

One data set deals with T1, cytochrome P450 1A2 (Homo sapiens, UniProt P05177).
T1 sequence (P05177 1-516): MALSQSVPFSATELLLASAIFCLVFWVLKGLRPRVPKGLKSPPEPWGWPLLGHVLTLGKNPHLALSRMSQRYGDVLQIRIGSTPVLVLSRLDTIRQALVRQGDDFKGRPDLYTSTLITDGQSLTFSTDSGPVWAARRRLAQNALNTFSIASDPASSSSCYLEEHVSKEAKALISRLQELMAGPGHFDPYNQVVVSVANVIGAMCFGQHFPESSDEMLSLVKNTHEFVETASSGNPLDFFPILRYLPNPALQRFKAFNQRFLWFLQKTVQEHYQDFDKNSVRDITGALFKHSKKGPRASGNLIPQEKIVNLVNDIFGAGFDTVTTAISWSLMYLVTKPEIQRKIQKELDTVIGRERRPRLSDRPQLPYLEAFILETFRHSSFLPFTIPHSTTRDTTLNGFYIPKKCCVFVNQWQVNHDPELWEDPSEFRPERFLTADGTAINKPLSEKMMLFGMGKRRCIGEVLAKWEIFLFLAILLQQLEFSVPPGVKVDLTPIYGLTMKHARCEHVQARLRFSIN
The conditions noted are these: cited from earlier work.

For data set [1] the following is noted: intravenous administration to rhesus monkeys; cited from earlier work.

On to `Cc1nc(C#Cc2cccnc2)cs1` [MTEP, 3-[(2-methyl-1,3-thiazol-4-yl)ethynyl]pyridine], for which the “inhibition of cytochrome P450 1A2” value on cytochrome P450 1A2 is “potent inhibitor of cytochrome P450 1A2”. The clearance result in data set [1] was “efficiently cleared”.
